Reference: US7482008B1, “Human T cell reactive feline protein (TRFP) isolated from house dust and uses therefor” (Merck Patent GmbH, priority 1989, dated 2009)

What was measured:
[1] = tested on: Fel d I primed mice; experiment: Peptide Y s.c. in Fel d I primed mice, IL-2 production of lymph node cells; format: in vivo, mouse; conditions: injected subcutaneously up to fifty-six days earlier; compared to control mice
[2] = tested on: BDF1 mice; experiment: Tolerization of mice with peptide s.c. or i.v., peptide-specific IL-2 production of lymph node cells (CTLL-2); format: in vivo, mouse; conditions: 300 μg in PBS day 0 and 5, intravenously and subcutaneously; challenge 100 μg in CFA
Method: Four groups of five BDF1 (C57BL/6J×DBA/2J) mice (females, 6-8 weeks of age), were injected either subcutaneously in a single dorsal site between the forelimbs or intravenously through one of the tail veins. […] The animals were sacrificed by cervical dislocation on day 20 and inguinal and popliteal nodes were removed and placed in rinsing buffer, cold RPMI 1640 containing 1% Fetal Bovine Serum (FBS). The nodes were rinsed with rinsing buffer and forced through a fine stainless steel mesh, using a glass pestal to suspend them in rinsing buffer. The suspended cells were rinsed two times by centrifugation at 1500 rpm for 10 minutes and resuspended with rinsing buffer. An aliquot of suspended cells from each animal was counted on a Coulter Counter Model ZB.
The 0.2 ml cultures were done in triplicate in flat bottom 96 well plates (Costar) at 37° C. and 5% CO2. After 24 hours, […] of the media from each well was placed in separate round bottom 96 well plates (Costar) and was frozen overnight at −20° C. to eliminate carryover of live cells. The supernatants were tested after thawing for their ability to support the growth of CTLL-2, an IL-2 dependent T cell clone (ATCC TIB#214). […] The ^3H-incorporation in each well was counted by a Betaplate Model 1205 scintillation counter. […]

[3] = tested on: human IgE (cat allergic patient plasma); experiment: Dot blot assay of human IgE binding; conditions: percent of cat allergic patients with positive IgE binding
Method: TRFP was coated at 2, 0.2 and 0.02 μg/dot and the peptides at 10, 1 and 0.1 μg/dot. Wells were then washed with 200 μl PBS. After equilibration of blots with Tween solution, (Tris-HCL; pH 7.5 0.025M NaCl 0.17 m Tween-20 0.5%) all sections were blocked with 1% nonfat dry milk, 1% fetal calf serun/Tween solution for 1-1.5 hour. Patient plasma was used at 10% (v/v) in 1% milt/Tween solution and preabsorbed on blank strips of nitrocellulose for 1 hour. After preabsorption, the diluted patient plasma sample was incubated with the antigen bearing dot blot overnight at room temperature (RT). Nitrocellulose dot blot was incubated in biotinylated goat anti-human IgE (1:2500) in Tween solution for 2 hours RT. After washing, the sections were incubated in 1 μCi ^125I-Streptavidin, 1 hour. Following removal of unbound label by extensive washing, the blots were exposed to film for 16 hours.

[4] = tested on: Balb/c mice; experiment: Oral rChain 1, single vs multiple doses, protocol 3; format: in vivo, mouse
Method: Five groups of five age-matched Balb/c mice were fed on days −7, −5 and −2 with 250 μg rChain 1 (Groups 1 and 4), 750 μg rChain 1 (Group 2), or with PBS (Groups 3 and 5). On day 0, the mice in Groups 1-3 were challenged with a s.c. injection of 100 μg rChain 1 in CFA, while the mice in Groups 4 and 5 were not challenged. On day 12 the draining and mesenteric lymph nodes and spleens were removed for proliferation, IL-2, IL-4 and TGF-beta assays.
The draining lymph nodes (i.e., inguinal, paraaortic and popliteal), the mesenteric lymph nodes, and the spleen were surgically removed from the animals 10-12 days after antigen challenge. Cells from these tissues were suspended by being forced through a stainless steel mesh with a glass pestle. The cells were washed twice in RPMI 1640 medium with a 1% fetal calf serum (FCS) before culture. All cells were cultured at 37° C. in 5% CO2 in RPMI 1640 with 10% FCS (no. F4884, Sigma), 100 units of penicillin G per ml, 10 μg of streptomycin per ml, 10 mM glutamine, and 0.05 mM 2-mercaptoethanol. […]. Cells were cultured in triplicate, 0.2 ml per well at 4×10^6 cells per ml, in 96-well plates. Supernatants were removed from the wells after 24 hours to test for the production of IL-2 or IL-3 and were frozen to kill any transferred cells or removed after 48 hours for testing IL-4 production. Separate triplicate wells were incubated for 96 hours for the proliferation assay. The supernatants were kept at […] for several days to kill transferred cells.
Lymph node of spleen cells were plated in a flat bottom 96-well plate (4×10^5/well) in 100 μl medium. Peptide or recombinant protein or control solution (100 μl) is added to each well and the cells allowed to incubate for 1 day at 37° C. On day 2, the cultures were pulsed with [^3H] thymidine (1 μCi per well in 50 μl of medium; 1 Ci=37 GBq) for 4 to 6 hours, and on day 3, the plates were harvested with a 96-well harvester (Tomtec, Orange, Conn.) and counted on a Betaplate scintillation counter (Pharmacia, Upsaala Sweden).
To measure IL-2, supernatants were tested after thawing for the ability to support the growth of an IL-2-dependent line such as CTLL-2 (University of California, Berkeley). The cell line was maintained by passage in 10% supernatant of Con A-stimulated (5 μg/ml) rat spleen cells. This cell line is dependent almost exclusively on IL-2 for growth and survival, proliferating only weakly to high doses of recombinant IL-4. […] After a 24 hour incubation, the cells were pulsed with [^3H] thymidine (1 μCi per well in 50 μl of medium; 1 Ci=37 GBq) for 4 to 6 hours and the plates were harvested with a 96-well harvester (Tomtec, Orange, Conn.) and counted on a Betaplate scintillation counter (Pharmacia, Upsaala Sweden). […]

With “peptide Y: amino acid residues 29-55 from chain 1 of TRFP (SEQ. ID. NO: 18) (KALPVVLENARILKNCVDAKMTEEDKE)” the “IL-2 production of lymph node cells” value [1] was “decreased IL-2 production” and the “specific IL-2 secretion of draining lymph node cells” value [2] was “decreased specific IL-2 secretion”.

In the case of “TRFP: human T cell reactive feline protein affinity purified from house dust; two covalently linked chains”, the “Positive Binding” value [3] was 100%.

“recombinant chain 1: recombinant TRFP chain 1 expressed in E. coli” was tested, and the “production of IL-2 by mesenteric lymph node cells” value ([4]; cultured with rChain 1, Peptide X, and Peptide Y) was “detectable tolerizing effect”, the “spleen cell response to peptide X” value ([4]; mouse, in vivo) was “not changed” and the “spleen cell response to rChain 1 and peptide Y” value ([4]; mouse, in vivo) was “moderately decreased”. The “draining node response, single oral 750 μg vs several doses of 250 μg” value ([4]; mouse, in vivo, po) was “more effective”.
